According to US9963445B2, “Chemical compounds” (SYNGENTA PARTICIPATIONS AG, priority 2013, dated 2018):

Key:
Format in all cases: in vivo
Abutilon theophrasti [1] = experiment: Post-emergence herbicidal activity, glasshouse pot test; set-up: key: 0 = no damage to plant, 5 = total damage to plant; conditions: Application post-emergence, rate 1000 g/ha, evaluated after 13 days
Summary of the method: (§1)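 Damage rated 0 (none) to 5 (total) 13 days after spraying. Plants were treated post-emergence at 8 days after sowing, using an acetone/water (50:50) formulation with 0.5% Tween 20 diluted to an aqueous spray.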

zea mays [2] = experiment: as above; set-up: key: 0 = no damage to plant, 5 = total damage to plant; conditions: Application post-emergence, rate 1000 g/ha, evaluated after 13 days
Summary of the method: as §1

Amaranthus retroflexus [3] = experiment: as above; set-up: key: 0 = no damage to plant, 5 = total damage to plant; conditions: Application post-emergence, rate 1000 g/ha, evaluated after 13 days
Summary of the method: as §1

Alopecurus myosuroides [4] = experiment: as above; set-up: key: 0 = no damage to plant, 5 = total damage to plant; conditions: Application post-emergence, rate 1000 g/ha, evaluated after 13 days
Summary of the method: as §1

Echinochloa crus-galli [5] = experiment: as above; set-up: key: 0 = no damage to plant, 5 = total damage to plant; conditions: Application post-emergence, rate 1000 g/ha, evaluated after 13 days
Summary of the method: as §1

Setaria faberi [6] = experiment: as above; set-up: key: 0 = no damage to plant, 5 = total damage to plant; conditions: Application post-emergence, rate 1000 g/ha, evaluated after 13 days
Summary of the method: as §1

Abutilon theophrasti [7] = experiment: Pre-emergence herbicidal activity, glasshouse pot test; conditions: pre-emergence spray, rate 1000 g/ha, evaluated after 13 days, scale 0-5
Summary of the method: (§2)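 Damage was rated at 13 days from 0 (none) to 5 (total), in a glasshouse kept at 24/16 °C, 14 h light and 65% humidity with watering twice daily. The aqueous spray of active ingredient in 50:50 acetone/water plus 0.5% Tween 20 was applied to soil one day post-sowing, before emergence.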

zea mays [8] = experiment: as above; conditions: pre-emergence spray, rate 1000 g/ha, evaluated after 13 days, scale 0-5
Summary of the method: as §2

Amaranthus retroflexus [9] = experiment: as above; conditions: pre-emergence spray, rate 1000 g/ha, evaluated after 13 days, scale 0-5
Summary of the method: as §2

Alopecurus myosuroides [10] = experiment: as above; conditions: pre-emergence spray, rate 1000 g/ha, evaluated after 13 days, scale 0-5
Summary of the method: as §2

Echinochloa crus-galli [11] = experiment: as above; conditions: pre-emergence spray, rate 1000 g/ha, evaluated after 13 days, scale 0-5
Summary of the method: as §2

Setaria faberi [12] = experiment: as above; conditions: pre-emergence spray, rate 1000 g/ha, evaluated after 13 days, scale 0-5
Summary of the method: as §2

## COC(=O)c1cnc(N2C(=O)C(Cl)=C(C)C2O)cc1C(F)(F)F (stereo not drawn) [AF42]
Abutilon theophrasti [1]
  ABUTH herbicidal damage score: 4
Zea mays [2]
  ZEAMX herbicidal damage score: 1
Amaranthus retroflexus [3]
  AMARE herbicidal damage score: 4
Alopecurus myosuroides [4]
  ALOMY herbicidal damage score: 3
Echinochloa crus-galli [5]
  ECHCG herbicidal damage score: 4
Setaria faberi [6]
  SETFA herbicidal damage score: 5
Abutilon theophrasti [7]
  ABUTH damage score, application pre-emergence: 0
Zea mays [8]
  ZEAMX damage score, application pre-emergence: 0
Amaranthus retroflexus [9]
  AMARE damage score, application pre-emergence: 0
Alopecurus myosuroides [10]
  ALOMY damage score, application pre-emergence: 0
Echinochloa crus-galli [11]
  ECHCG damage score, application pre-emergence: 0
Setaria faberi [12]
  SETFA damage score, application pre-emergence: 0

## CC1=C(Cl)C(=O)N(c2cc(C(F)(F)F)c(C(F)(F)F)cn2)C1O (stereo not drawn) [AF43]
Abutilon theophrasti [1]
  ABUTH herbicidal damage score: 1
Zea mays [2]
  ZEAMX herbicidal damage score: 0
Amaranthus retroflexus [3]
  AMARE herbicidal damage score: 1
Alopecurus myosuroides [4]
  ALOMY herbicidal damage score: 2
Echinochloa crus-galli [5]
  ECHCG herbicidal damage score: 5
Setaria faberi [6]
  SETFA herbicidal damage score: 5
Abutilon theophrasti [7]
  ABUTH damage score, application pre-emergence: 0
Zea mays [8]
  ZEAMX damage score, application pre-emergence: 0
Amaranthus retroflexus [9]
  AMARE damage score, application pre-emergence: 0
Alopecurus myosuroides [10]
  ALOMY damage score, application pre-emergence: 0
Echinochloa crus-galli [11]
  ECHCG damage score, application pre-emergence: 0
Setaria faberi [12]
  SETFA damage score, application pre-emergence: 0

## COc1ccnc(N2C(=O)C(Cl)=C(C)C2O)c1 (stereo not drawn) [AF44]
Abutilon theophrasti [1]
  ABUTH herbicidal damage score: 3
Zea mays [2]
  ZEAMX herbicidal damage score: 2
Amaranthus retroflexus [3]
  AMARE herbicidal damage score: 1
Alopecurus myosuroides [4]
  ALOMY herbicidal damage score: 3
Echinochloa crus-galli [5]
  ECHCG herbicidal damage score: 4
Setaria faberi [6]
  SETFA herbicidal damage score: 1
Abutilon theophrasti [7]
  ABUTH damage score, application pre-emergence: 0
Zea mays [8]
  ZEAMX damage score, application pre-emergence: 0
Amaranthus retroflexus [9]
  AMARE damage score, application pre-emergence: 0
Alopecurus myosuroides [10]
  ALOMY damage score, application pre-emergence: 0
Echinochloa crus-galli [11]
  ECHCG damage score, application pre-emergence: 0
Setaria faberi [12]
  SETFA damage score, application pre-emergence: 0

## CC1=C(Cl)C(=O)N(c2cc(C)c([N+](=O)[O-])cn2)C1O (stereo not drawn) [AF48]
Abutilon theophrasti [1]
  ABUTH herbicidal damage score: 0
Zea mays [2]
  ZEAMX herbicidal damage score: 0
Amaranthus retroflexus [3]
  AMARE herbicidal damage score: 5
Alopecurus myosuroides [4]
  ALOMY herbicidal damage score: 2
Echinochloa crus-galli [5]
  ECHCG herbicidal damage score: 3
Setaria faberi [6]
  SETFA herbicidal damage score: 3
Abutilon theophrasti [7]
  ABUTH damage score, application pre-emergence: 0
Zea mays [8]
  ZEAMX damage score, application pre-emergence: 0
Amaranthus retroflexus [9]
  AMARE damage score, application pre-emergence: 0
Alopecurus myosuroides [10]
  ALOMY damage score, application pre-emergence: 1
Echinochloa crus-galli [11]
  ECHCG damage score, application pre-emergence: 1
Setaria faberi [12]
  SETFA damage score, application pre-emergence: 0

## CC1=C(Cl)C(=O)N(c2cc(C#N)ccn2)C1O (stereo not drawn) [AF50]
Abutilon theophrasti [1]
  ABUTH herbicidal damage score: 5
Zea mays [2]
  ZEAMX herbicidal damage score: 2
Amaranthus retroflexus [3]
  AMARE herbicidal damage score: 1
Alopecurus myosuroides [4]
  ALOMY herbicidal damage score: 5
Echinochloa crus-galli [5]
  ECHCG herbicidal damage score: 5
Setaria faberi [6]
  SETFA herbicidal damage score: 5
Abutilon theophrasti [7]
  ABUTH damage score, application pre-emergence: 0
Zea mays [8]
  ZEAMX damage score, application pre-emergence: 0
Amaranthus retroflexus [9]
  AMARE damage score, application pre-emergence: 0
Alopecurus myosuroides [10]
  ALOMY damage score, application pre-emergence: 2
Echinochloa crus-galli [11]
  ECHCG damage score, application pre-emergence: 0
Setaria faberi [12]
  SETFA damage score, application pre-emergence: 1

## CC1=C(Cl)C(=O)N(c2cc([S+](C)[O-])ccn2)C1O (stereo not drawn) [AF51]
Abutilon theophrasti [1]
  ABUTH herbicidal damage score: 4
Zea mays [2]
  ZEAMX herbicidal damage score: 0
Amaranthus retroflexus [3]
  AMARE herbicidal damage score: 0
Alopecurus myosuroides [4]
  ALOMY herbicidal damage score: 3
Echinochloa crus-galli [5]
  ECHCG herbicidal damage score: 3
Setaria faberi [6]
  SETFA herbicidal damage score: 3
Abutilon theophrasti [7]
  ABUTH damage score, application pre-emergence: 0
Zea mays [8]
  ZEAMX damage score, application pre-emergence: 0
Amaranthus retroflexus [9]
  AMARE damage score, application pre-emergence: 0
Alopecurus myosuroides [10]
  ALOMY damage score, application pre-emergence: 0
Echinochloa crus-galli [11]
  ECHCG damage score, application pre-emergence: 0
Setaria faberi [12]
  SETFA damage score, application pre-emergence: 0

## CC1=C(Cl)C(=O)N(c2ccc([S+](C)[O-])cn2)C1O (stereo not drawn) [AF53]
Abutilon theophrasti [1]
  ABUTH herbicidal damage score: 3
Zea mays [2]
  ZEAMX herbicidal damage score: 0
Amaranthus retroflexus [3]
  AMARE herbicidal damage score: 1
Alopecurus myosuroides [4]
  ALOMY herbicidal damage score: 3
Echinochloa crus-galli [5]
  ECHCG herbicidal damage score: 3
Setaria faberi [6]
  SETFA herbicidal damage score: 3
Abutilon theophrasti [7]
  ABUTH damage score, application pre-emergence: 0
Zea mays [8]
  ZEAMX damage score, application pre-emergence: 1
Amaranthus retroflexus [9]
  AMARE damage score, application pre-emergence: 1
Alopecurus myosuroides [10]
  ALOMY damage score, application pre-emergence: 2
Echinochloa crus-galli [11]
  ECHCG damage score, application pre-emergence: 1
Setaria faberi [12]
  SETFA damage score, application pre-emergence: 0

## CC1=C(Cl)C(=O)N(c2ccc(S(C)(=O)=O)cn2)C1O (stereo not drawn) [AF54]
Abutilon theophrasti [1]
  ABUTH herbicidal damage score: 2
Zea mays [2]
  ZEAMX herbicidal damage score: 0
Amaranthus retroflexus [3]
  AMARE herbicidal damage score: 0
Alopecurus myosuroides [4]
  ALOMY herbicidal damage score: 2
Echinochloa crus-galli [5]
  ECHCG herbicidal damage score: 3
Setaria faberi [6]
  SETFA herbicidal damage score: 1
Abutilon theophrasti [7]
  ABUTH damage score, application pre-emergence: 0
Zea mays [8]
  ZEAMX damage score, application pre-emergence: 2
Amaranthus retroflexus [9]
  AMARE damage score, application pre-emergence: 0
Alopecurus myosuroides [10]
  ALOMY damage score, application pre-emergence: 0
Echinochloa crus-galli [11]
  ECHCG damage score, application pre-emergence: 1
Setaria faberi [12]
  SETFA damage score, application pre-emergence: 0

## COc1ccc(N2C(=O)C(Cl)=C(C)C2O)nc1 (stereo not drawn) [AF56]
Abutilon theophrasti [1]
  ABUTH herbicidal damage score: 5
Zea mays [2]
  ZEAMX herbicidal damage score: 2
Amaranthus retroflexus [3]
  AMARE herbicidal damage score: 3
Alopecurus myosuroides [4]
  ALOMY herbicidal damage score: 4
Echinochloa crus-galli [5]
  ECHCG herbicidal damage score: 4
Setaria faberi [6]
  SETFA herbicidal damage score: 4
Abutilon theophrasti [7]
  ABUTH damage score, application pre-emergence: 2
Zea mays [8]
  ZEAMX damage score, application pre-emergence: 0
Amaranthus retroflexus [9]
  AMARE damage score, application pre-emergence: 1
Alopecurus myosuroides [10]
  ALOMY damage score, application pre-emergence: 0
Echinochloa crus-galli [11]
  ECHCG damage score, application pre-emergence: 0
Setaria faberi [12]
  SETFA damage score, application pre-emergence: 0

## CC1=C(Cl)C(=O)N(c2cc(C(F)(F)F)c(Cl)cn2)C1O (stereo not drawn) [AF58]
Abutilon theophrasti [1]
  ABUTH herbicidal damage score: 5
Zea mays [2]
  ZEAMX herbicidal damage score: 3
Amaranthus retroflexus [3]
  AMARE herbicidal damage score: 5
Alopecurus myosuroides [4]
  ALOMY herbicidal damage score: 4
Echinochloa crus-galli [5]
  ECHCG herbicidal damage score: 5
Setaria faberi [6]
  SETFA herbicidal damage score: 5
Abutilon theophrasti [7]
  ABUTH damage score, application pre-emergence: 2
Zea mays [8]
  ZEAMX damage score, application pre-emergence: 0
Amaranthus retroflexus [9]
  AMARE damage score, application pre-emergence: 5
Alopecurus myosuroides [10]
  ALOMY damage score, application pre-emergence: 3
Echinochloa crus-galli [11]
  ECHCG damage score, application pre-emergence: 4
Setaria faberi [12]
  SETFA damage score, application pre-emergence: 3

## COc1ccc(-c2ccc(N3C(=O)C(Cl)=C(C)C3O)nc2)cc1 (stereo not drawn) [AF59]
Abutilon theophrasti [1]
  ABUTH herbicidal damage score: 4
Zea mays [2]
  ZEAMX herbicidal damage score: 0
Amaranthus retroflexus [3]
  AMARE herbicidal damage score: 3
Alopecurus myosuroides [4]
  ALOMY herbicidal damage score: 1
Echinochloa crus-galli [5]
  ECHCG herbicidal damage score: 1
Setaria faberi [6]
  SETFA herbicidal damage score: 2
Abutilon theophrasti [7]
  ABUTH damage score, application pre-emergence: 2
Zea mays [8]
  ZEAMX damage score, application pre-emergence: 0
Amaranthus retroflexus [9]
  AMARE damage score, application pre-emergence: 3
Alopecurus myosuroides [10]
  ALOMY damage score, application pre-emergence: 0
Echinochloa crus-galli [11]
  ECHCG damage score, application pre-emergence: 1
Setaria faberi [12]
  SETFA damage score, application pre-emergence: 0

## CC1=C(Cl)C(=O)N(c2ccc(C#N)cn2)C1O (stereo not drawn) [AF60]
Abutilon theophrasti [1]
  ABUTH herbicidal damage score: 0
Zea mays [2]
  ZEAMX herbicidal damage score: 0
Amaranthus retroflexus [3]
  AMARE herbicidal damage score: 0
Alopecurus myosuroides [4]
  ALOMY herbicidal damage score: 1
Echinochloa crus-galli [5]
  ECHCG herbicidal damage score: 1
Setaria faberi [6]
  SETFA herbicidal damage score: 1
Abutilon theophrasti [7]
  ABUTH damage score, application pre-emergence: 0
Zea mays [8]
  ZEAMX damage score, application pre-emergence: 0
Amaranthus retroflexus [9]
  AMARE damage score, application pre-emergence: 0
Alopecurus myosuroides [10]
  ALOMY damage score, application pre-emergence: 0
Echinochloa crus-galli [11]
  ECHCG damage score, application pre-emergence: 0
Setaria faberi [12]
  SETFA damage score, application pre-emergence: 0
